Assay [1] deals with Calcium/calmodulin-dependent protein kinase type II subunit alpha (Homo sapiens) (UniProt Q9UQM7).
For assay [2], the target named is Calcium/calmodulin-dependent protein kinase type II subunit beta (Homo sapiens) (UniProt Q13554).
In assay [3] the target is Cyclin-dependent kinase 2 (Homo sapiens, UniProt P24941).
The target in assay [4] is Serine/threonine-protein kinase Chk2 (Homo sapiens, UniProt O96017).
For assay [5], the target named is Dual specificity protein kinase CLK2 (Homo sapiens) (UniProt P49760).
Assay [6] has as its target Death-associated protein kinase 3 (Homo sapiens) (UniProt O43293).
The target in assay [7] is T1, Myotonin-protein kinase (Homo sapiens) (UniProt Q09013).
T1 sequence (whole entry): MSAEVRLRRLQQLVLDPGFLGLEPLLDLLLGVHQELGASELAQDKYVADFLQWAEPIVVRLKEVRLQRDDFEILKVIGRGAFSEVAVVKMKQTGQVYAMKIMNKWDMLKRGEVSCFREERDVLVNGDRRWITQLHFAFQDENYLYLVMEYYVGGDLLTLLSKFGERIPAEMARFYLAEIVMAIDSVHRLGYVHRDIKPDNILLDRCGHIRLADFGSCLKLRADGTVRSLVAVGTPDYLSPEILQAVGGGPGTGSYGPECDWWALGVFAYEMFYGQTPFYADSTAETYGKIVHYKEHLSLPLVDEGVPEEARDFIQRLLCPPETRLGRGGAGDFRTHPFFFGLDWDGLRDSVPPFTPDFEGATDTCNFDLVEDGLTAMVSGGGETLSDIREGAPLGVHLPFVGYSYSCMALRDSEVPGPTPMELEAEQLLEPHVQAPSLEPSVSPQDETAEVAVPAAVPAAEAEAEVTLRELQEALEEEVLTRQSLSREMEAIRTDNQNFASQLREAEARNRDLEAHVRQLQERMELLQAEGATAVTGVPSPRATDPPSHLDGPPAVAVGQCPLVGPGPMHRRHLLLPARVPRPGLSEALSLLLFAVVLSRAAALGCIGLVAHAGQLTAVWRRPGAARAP

Assay [8] addresses T2, Mitogen-activated protein kinase kinase kinase 5 (Homo sapiens) (UniProt Q99683).
T2 sequence (whole entry): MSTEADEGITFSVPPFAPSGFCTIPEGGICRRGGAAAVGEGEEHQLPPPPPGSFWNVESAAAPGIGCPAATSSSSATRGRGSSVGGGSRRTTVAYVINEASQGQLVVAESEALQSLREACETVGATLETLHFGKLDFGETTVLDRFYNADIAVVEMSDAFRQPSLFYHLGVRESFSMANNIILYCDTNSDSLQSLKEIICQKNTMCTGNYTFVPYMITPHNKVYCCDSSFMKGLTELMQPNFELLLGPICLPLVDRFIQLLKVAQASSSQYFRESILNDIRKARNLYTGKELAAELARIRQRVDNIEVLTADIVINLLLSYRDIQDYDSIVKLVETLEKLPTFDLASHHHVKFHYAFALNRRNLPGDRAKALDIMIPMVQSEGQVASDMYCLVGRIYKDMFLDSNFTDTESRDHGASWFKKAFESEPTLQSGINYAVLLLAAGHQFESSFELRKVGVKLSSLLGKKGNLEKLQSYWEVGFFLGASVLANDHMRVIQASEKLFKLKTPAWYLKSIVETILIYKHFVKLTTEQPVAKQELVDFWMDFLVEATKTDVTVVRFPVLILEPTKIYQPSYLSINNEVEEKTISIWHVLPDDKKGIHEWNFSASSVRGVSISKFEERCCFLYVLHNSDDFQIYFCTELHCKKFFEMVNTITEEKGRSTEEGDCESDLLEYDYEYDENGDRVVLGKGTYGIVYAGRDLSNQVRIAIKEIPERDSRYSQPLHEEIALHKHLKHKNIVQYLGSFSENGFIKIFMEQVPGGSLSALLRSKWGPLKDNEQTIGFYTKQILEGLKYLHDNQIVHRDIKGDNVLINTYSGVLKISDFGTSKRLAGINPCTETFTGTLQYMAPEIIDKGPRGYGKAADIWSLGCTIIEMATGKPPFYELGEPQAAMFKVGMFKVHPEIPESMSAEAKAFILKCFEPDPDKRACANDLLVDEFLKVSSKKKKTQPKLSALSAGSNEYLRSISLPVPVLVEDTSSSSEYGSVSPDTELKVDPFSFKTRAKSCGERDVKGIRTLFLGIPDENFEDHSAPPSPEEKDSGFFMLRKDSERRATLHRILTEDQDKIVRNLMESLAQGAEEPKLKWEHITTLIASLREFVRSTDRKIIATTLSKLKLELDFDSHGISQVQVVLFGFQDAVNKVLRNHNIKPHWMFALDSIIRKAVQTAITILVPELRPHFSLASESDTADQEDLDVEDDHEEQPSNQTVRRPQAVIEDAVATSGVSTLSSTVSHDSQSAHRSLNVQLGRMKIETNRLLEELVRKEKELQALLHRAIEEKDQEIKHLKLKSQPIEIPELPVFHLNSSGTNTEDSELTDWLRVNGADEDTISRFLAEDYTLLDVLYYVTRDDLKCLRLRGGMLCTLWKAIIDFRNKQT

Assay [9] concerns the target Serine/threonine-protein kinase Nek6 (Homo sapiens) (UniProt Q9HC98).
For assay [10], the target named is Serine/threonine-protein kinase OSR1 (Homo sapiens) (UniProt O95747).
Assay [11] deals with Serine/threonine-protein kinase PAK 6 (Homo sapiens) (UniProt Q9NQU5).
Assay [12] concerns the target Serine/threonine-protein kinase pim-1 (Homo sapiens) (UniProt P11309).
The target in assay [13] is Serine/threonine-protein kinase PLK1 (Homo sapiens) (UniProt P53350).
In assay [14] the target is cAMP-dependent protein kinase catalytic subunit alpha (Homo sapiens) (UniProt P17612).
For assay [15], the target named is Serine/threonine-protein kinase RIO2 (Homo sapiens) (UniProt Q9BVS4).
For assay [16], the target named is Serine/threonine-protein kinase 10 (Homo sapiens) (UniProt O94804).
Assay [17] deals with Serine/threonine-protein kinase 26 (Homo sapiens) (UniProt Q9P289).
Assay [18] addresses Serine/threonine-protein kinase VRK2 (Homo sapiens) (UniProt Q86Y07).

One may read the ΔTm as the change in melting temperature against a reference sample.

Sequence of Serine/threonine-protein kinase PLK1 (Homo sapiens) (P53350 whole entry): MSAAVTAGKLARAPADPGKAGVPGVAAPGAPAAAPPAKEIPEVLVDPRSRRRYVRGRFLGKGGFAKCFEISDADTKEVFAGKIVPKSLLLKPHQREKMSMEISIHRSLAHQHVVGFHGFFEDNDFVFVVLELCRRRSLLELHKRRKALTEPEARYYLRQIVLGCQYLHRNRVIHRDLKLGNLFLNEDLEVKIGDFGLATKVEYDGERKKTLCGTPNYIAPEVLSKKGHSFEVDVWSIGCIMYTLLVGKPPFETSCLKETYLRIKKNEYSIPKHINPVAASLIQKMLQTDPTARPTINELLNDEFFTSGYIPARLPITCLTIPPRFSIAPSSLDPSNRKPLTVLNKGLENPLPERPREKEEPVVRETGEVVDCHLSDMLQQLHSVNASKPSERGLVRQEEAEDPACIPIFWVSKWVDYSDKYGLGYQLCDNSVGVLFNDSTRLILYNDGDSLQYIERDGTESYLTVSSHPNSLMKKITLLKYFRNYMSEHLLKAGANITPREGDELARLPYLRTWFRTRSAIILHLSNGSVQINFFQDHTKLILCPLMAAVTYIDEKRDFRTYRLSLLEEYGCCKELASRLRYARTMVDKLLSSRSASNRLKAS
Sequence of Serine/threonine-protein kinase VRK2 (Homo sapiens) (Q86Y07 whole entry): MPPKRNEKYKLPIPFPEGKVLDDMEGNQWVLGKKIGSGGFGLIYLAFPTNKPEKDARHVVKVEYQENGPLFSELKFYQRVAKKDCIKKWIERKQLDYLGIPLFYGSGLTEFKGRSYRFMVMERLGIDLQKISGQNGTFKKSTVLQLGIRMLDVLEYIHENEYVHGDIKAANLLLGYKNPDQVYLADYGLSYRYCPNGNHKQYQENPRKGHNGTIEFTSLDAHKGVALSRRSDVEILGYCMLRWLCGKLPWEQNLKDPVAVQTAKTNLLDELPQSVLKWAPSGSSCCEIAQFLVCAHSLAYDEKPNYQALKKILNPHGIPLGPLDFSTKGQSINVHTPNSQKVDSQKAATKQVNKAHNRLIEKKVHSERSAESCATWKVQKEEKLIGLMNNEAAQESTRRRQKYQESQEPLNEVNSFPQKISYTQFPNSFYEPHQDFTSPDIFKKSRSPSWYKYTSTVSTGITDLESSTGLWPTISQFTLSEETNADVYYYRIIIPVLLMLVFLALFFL
Sequence of Serine/threonine-protein kinase 10 (Homo sapiens) (O94804 whole entry, looked up): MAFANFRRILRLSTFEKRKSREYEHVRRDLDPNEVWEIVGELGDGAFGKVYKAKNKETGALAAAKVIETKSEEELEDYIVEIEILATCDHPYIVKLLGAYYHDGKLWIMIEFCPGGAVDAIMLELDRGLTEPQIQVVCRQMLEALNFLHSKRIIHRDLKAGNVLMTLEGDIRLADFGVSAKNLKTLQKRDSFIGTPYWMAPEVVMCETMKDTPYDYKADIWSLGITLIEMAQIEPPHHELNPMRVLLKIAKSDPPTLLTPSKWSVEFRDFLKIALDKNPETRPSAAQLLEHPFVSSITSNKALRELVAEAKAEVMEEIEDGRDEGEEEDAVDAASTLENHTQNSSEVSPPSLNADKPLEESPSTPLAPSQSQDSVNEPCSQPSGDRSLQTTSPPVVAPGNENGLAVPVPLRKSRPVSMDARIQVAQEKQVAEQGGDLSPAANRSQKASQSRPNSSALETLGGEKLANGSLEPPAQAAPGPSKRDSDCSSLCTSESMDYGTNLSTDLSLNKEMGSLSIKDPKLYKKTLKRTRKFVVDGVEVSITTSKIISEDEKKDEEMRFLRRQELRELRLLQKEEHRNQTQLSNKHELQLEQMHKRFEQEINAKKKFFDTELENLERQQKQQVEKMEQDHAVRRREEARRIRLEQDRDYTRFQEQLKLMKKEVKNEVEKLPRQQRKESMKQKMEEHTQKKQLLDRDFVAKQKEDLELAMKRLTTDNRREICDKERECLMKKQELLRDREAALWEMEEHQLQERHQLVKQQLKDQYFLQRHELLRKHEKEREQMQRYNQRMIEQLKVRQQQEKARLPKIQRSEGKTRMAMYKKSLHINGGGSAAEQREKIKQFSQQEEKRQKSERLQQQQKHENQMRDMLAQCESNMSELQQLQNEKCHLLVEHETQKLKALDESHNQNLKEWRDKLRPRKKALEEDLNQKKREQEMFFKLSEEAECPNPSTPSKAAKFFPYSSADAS
Sequence of Calcium/calmodulin-dependent protein kinase type II subunit beta (Homo sapiens) (Q13554 whole entry): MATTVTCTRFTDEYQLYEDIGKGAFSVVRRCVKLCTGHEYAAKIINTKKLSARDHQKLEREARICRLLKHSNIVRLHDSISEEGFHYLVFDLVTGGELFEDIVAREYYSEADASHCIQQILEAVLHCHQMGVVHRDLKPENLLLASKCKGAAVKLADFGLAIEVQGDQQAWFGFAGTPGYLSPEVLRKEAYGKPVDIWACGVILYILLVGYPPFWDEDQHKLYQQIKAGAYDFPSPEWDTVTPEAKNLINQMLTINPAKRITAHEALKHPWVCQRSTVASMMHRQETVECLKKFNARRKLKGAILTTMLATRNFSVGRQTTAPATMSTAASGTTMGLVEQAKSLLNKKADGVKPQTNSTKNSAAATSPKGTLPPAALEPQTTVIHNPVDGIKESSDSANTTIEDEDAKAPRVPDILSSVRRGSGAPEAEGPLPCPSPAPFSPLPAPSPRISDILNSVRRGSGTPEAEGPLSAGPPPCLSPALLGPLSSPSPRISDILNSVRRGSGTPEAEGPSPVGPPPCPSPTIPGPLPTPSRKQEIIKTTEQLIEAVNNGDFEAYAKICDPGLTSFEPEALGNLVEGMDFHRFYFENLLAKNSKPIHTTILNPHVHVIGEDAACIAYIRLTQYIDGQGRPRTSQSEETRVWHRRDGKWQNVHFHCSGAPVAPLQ
Sequence of Serine/threonine-protein kinase Chk2 (O96017 whole entry): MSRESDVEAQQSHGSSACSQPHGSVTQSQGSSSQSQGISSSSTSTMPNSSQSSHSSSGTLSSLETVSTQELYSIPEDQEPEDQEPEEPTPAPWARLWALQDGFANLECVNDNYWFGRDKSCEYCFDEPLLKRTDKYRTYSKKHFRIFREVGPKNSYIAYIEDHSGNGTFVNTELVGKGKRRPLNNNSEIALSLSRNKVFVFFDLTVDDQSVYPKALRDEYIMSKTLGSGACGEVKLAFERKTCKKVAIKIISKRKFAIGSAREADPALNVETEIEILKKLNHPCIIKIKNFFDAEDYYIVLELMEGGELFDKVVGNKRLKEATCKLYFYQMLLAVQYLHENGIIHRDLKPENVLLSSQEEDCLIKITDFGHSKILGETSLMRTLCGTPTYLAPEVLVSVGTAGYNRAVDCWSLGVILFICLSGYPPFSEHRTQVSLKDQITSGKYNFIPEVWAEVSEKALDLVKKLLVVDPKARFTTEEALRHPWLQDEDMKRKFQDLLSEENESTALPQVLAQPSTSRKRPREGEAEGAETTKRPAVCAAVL
Sequence of Serine/threonine-protein kinase Nek6 (Homo sapiens) (Q9HC98 whole entry): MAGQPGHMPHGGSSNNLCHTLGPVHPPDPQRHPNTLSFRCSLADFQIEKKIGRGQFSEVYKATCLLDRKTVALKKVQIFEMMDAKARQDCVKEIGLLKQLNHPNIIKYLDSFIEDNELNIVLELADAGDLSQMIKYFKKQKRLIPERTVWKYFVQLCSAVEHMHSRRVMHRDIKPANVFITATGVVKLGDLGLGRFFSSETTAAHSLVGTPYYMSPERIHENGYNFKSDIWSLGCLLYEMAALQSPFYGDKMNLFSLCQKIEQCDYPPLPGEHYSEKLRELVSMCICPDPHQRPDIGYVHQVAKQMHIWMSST
Sequence of Serine/threonine-protein kinase OSR1 (Homo sapiens) (O95747 2-527 limits assumed): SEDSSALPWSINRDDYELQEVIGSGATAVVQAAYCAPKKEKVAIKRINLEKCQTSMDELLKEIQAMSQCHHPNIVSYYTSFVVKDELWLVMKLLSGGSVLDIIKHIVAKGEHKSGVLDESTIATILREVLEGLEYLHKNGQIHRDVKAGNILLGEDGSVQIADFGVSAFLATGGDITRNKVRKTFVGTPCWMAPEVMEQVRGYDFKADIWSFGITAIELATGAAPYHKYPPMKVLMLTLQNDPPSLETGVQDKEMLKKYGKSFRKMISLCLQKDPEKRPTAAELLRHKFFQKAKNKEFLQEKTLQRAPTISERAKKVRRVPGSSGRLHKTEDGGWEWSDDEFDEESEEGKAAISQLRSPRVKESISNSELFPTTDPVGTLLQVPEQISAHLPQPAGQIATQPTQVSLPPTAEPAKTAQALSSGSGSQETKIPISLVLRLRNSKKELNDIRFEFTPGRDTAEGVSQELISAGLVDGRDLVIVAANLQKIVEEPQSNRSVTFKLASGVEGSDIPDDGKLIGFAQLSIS
Sequence of Calcium/calmodulin-dependent protein kinase type II subunit alpha (Homo sapiens) (Q9UQM7 whole entry): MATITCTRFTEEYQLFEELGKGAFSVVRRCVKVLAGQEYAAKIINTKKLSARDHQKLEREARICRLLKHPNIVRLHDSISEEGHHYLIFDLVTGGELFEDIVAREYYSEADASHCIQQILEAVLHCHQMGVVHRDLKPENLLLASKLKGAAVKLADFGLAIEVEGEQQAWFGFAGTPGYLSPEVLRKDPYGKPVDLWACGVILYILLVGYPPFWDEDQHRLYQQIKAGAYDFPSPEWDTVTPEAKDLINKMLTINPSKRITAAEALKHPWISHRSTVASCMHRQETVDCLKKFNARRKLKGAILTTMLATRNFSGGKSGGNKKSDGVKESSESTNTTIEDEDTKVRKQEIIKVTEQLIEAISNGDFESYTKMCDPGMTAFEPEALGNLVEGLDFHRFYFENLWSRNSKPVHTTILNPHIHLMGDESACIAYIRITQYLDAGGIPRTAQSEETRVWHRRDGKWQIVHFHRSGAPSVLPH
Sequence of Serine/threonine-protein kinase 26 (Homo sapiens) (Q9P289 2-416 limits assumed): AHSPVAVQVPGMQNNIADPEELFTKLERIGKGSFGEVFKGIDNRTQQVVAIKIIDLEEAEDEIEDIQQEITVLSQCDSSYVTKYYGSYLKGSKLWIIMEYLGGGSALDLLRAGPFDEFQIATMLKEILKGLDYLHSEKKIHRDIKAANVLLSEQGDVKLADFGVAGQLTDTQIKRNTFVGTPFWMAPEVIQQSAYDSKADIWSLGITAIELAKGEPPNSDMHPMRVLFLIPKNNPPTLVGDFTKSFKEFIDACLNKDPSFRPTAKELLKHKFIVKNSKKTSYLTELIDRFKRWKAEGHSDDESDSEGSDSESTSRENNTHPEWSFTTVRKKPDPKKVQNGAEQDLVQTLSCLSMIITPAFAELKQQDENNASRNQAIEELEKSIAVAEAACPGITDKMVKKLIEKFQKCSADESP

For the molecule `O=C1Nc2ccc(I)cc2/C1=C1/Nc2ccccc2/C1=N\O`, the ΔTm was determined as 4.5 °C in assay [1]; 1.2 °C in assay [2]; 6.8 °C in [3]; 1.9 °C in assay [4]; 2.9 °C in assay [5]; 1.4 °C in assay [6]. The ΔTm was 1 °C in assay [7]; 5.7 °C in [8]; -2 °C in assay [9]; -1.3 °C in assay [10]; 0.9 °C in [11]; 1.7 °C in assay [12]. For the same molecule, the ΔTm is -0.7 °C in assay [13]; -0.7 °C in assay [14]; 2.5 °C in [15]; 0 °C in assay [16]; 0 °C in assay [17]; 4.3 °C in assay [18].
For the molecule `CCOc1cc(/C=C(\C#N)C(N)=O)cc(CSc2ccccc2)c1O`, the ΔTm in assay [1] is -0.2 °C; in [2], -0.2 °C; in assay [3], 0.8 °C; in assay [4] it was 0 °C; in assay [5], 0.2 °C; in assay [6], 0.1 °C. For the same molecule, the ΔTm is -0.5 °C in assay [7]; 0.1 °C in [8]; -0.1 °C in assay [9]; 0.9 °C in [10]; -0.4 °C in [11]; -0.1 °C in assay [12]. The thermal shift (ΔTm) in assay [13] was 1.9 °C; in assay [14] it was 1 °C; in assay [15], 0.1 °C; in [16], 1.1 °C; in assay [17] it was -0.5 °C; in [18] it was 0.1 °C.
Take `NC1=NC(=O)/C(=C2\CCNC(=O)c3[nH]c(Br)cc32)N1` [HYMENIALDISINE]: the ΔTm stood at 0.4 °C in assay [1]; 0.4 °C in assay [2]; 1.5 °C in assay [3]; 8.2 °C in [4]; 5.6 °C in assay [5]; 7.6 °C in [6]. For the same molecule, the ΔTm in assay [7] came to 2.1 °C; in [8], 10.4 °C; in assay [9] it was 0 °C; in assay [10] it was 0.5 °C; in [11], 1.2 °C; in assay [12], 0.7 °C. Moreover, the ΔTm in [13] stood at 5.8 °C; in [14], 0.8 °C; in assay [15], 0.2 °C; in assay [16] it was 4.2 °C; in assay [17] it was 1.8 °C; in assay [18], 0.8 °C.
For the molecule `COc1ccc(CNC(=O)Nc2ncc([N+](=O)[O-])s2)cc1`, the ΔTm was -0.1 °C in assay [1]; -0.5 °C in assay [2]; 0.8 °C in assay [3]; 0.4 °C in assay [4]; -0.9 °C in [5]; -0.9 °C in assay [6]. Besides, the ΔTm in assay [7] is 0.1 °C; in [8], -0.4 °C; in [9], 0.4 °C; in assay [10] it was 1.6 °C; in assay [11], 0.5 °C; in assay [12], 1.1 °C. In addition, the ΔTm in [13] is 0.7 °C; in assay [14] it was 1 °C; in [15], 1.7 °C; in assay [16] it was 1.1 °C; in assay [17], 1.5 °C; in assay [18] it was 0.6 °C.
On to `O=C(O)Cc1ccc(O)c([N+](=O)[O-])c1`, for which the thermal shift (ΔTm) in assay [1] is 1.4 °C; in assay [2] it was 0.6 °C; in assay [3] it was 1.1 °C; in assay [4], -0.8 °C; in assay [5], 0.5 °C; in assay [6] it was 0.5 °C. The ΔTm is 1.6 °C in assay [7]; -0.7 °C in assay [8]; 0.5 °C in assay [9]; 0 °C in assay [10]; -0.9 °C in [11]; 0.2 °C in assay [12]. The ΔTm is 0.4 °C in assay [13]; -0.9 °C in assay [14]; -0.1 °C in assay [15]; 0 °C in [16]; 1.1 °C in assay [17]; 0.3 °C in assay [18].
Regarding `C#Cc1cccc(Nc2ncnc3cc(OCCOC)c(OCCOC)cc23)c1`, the ΔTm in [1] is 0 °C; in assay [2], 0.5 °C; in assay [3], -0.6 °C; in assay [4], 0.4 °C; in [5], 0.3 °C; in assay [6], 1.2 °C. The ΔTm in assay [7] was 3.4 °C; in assay [8], 0.3 °C; in assay [9] it was -0.7 °C; in assay [10] it was 0 °C; in assay [11] it was -0.1 °C; in assay [12] it was 0 °C. Besides, the ΔTm amounted to 1.6 °C in [13]; 0 °C in assay [14]; 0.3 °C in [15]; 0 °C in [16]; 0.6 °C in assay [17]; 0.5 °C in assay [18].
Consider `Oc1cccc(-c2nc(N3CCOCC3)c3oc4ncccc4c3n2)c1`, for which the ΔTm in assay [1] is -0.3 °C; in assay [2], 0.1 °C; in assay [3], 0.4 °C; in [4], 1.4 °C; in [5], 0 °C; in assay [6], 0 °C. Further, the ΔTm in assay [7] is -0.7 °C; in assay [8] it was -0.4 °C; in assay [9], 0.4 °C; in [10], 2 °C; in [11], 0.7 °C; in assay [12], -0.4 °C. Besides, the ΔTm in assay [13] was 0.3 °C; in [14], 0.8 °C; in assay [15], -0.3 °C; in assay [16] it was -0.4 °C; in assay [17], 0.9 °C; in assay [18], 0.4 °C.

For the origin of these results see ChEMBL document CHEMBL1145498, “A systematic interaction map of validated kinase inhibitors with Ser/Thr kinases” (Proc Natl Acad Sci U S A, 2007).
